Reference: US20260356984A1, “DNA-AFFIBODY-DRUG NANOSTRUCTURES FOR INHIBITING TRIPLE NEGATIVE BREAST CANCER GROWTH AND METASTASIS” (ARIZONA BOARD OF REGENTS ON BEHALF OF ARIZONA STATE …, priority 2022, published 2026)

Tests used:
[1] = tested on: MDA-MB-231 cells; test: Crosslinking assay of HER1 overexpressing TNBC cells; assay type: cell-based; settings: 500 nM free THZ1; 24 h
Experimental: (§1) FIGS. 4A-4H. Crosslinking of BC cells induced by I. MB-231 cells without drug treatment (A, D); with 500 nM THZ1 (B, E); with 10 nM I (C, F) were incubated 24 h and 48 h, respectively. (G) Calculated crosslinking efficiency of MB-231 cells in the presence of 10 nM I in 24 h (p<0.001); (H) Calculated crosslinking efficiency of BT474 cells in the presence of 10 nM I in 24 h.
(§2) Crosslinking assay: Crosslinking of TNBC cells by I was verified using a HER1 overexpressing TNBC cell line (MDA-MB-23146). In the presence of nanostructure I (containing 50 copies of THZ1), the cells were effectively crosslinked to each other through multiple ZHER1-HER1 bindings. […] The crosslinking efficiency was up to 96% in 24 h (FIG. 4G). [Crosslinking efficiency (%)=(cell number without any treatment-non-aggregated cell number)× 100%/(cell number without any treatment). Data were reported as the mean of three independent experiments].

[2] = tested on: DNA tetrahedron; test: DNA-THZ1 binding assay (G-25 column, UV absorption 220 nm)
Experimental: FIGS. 3A-3B. DNA-THZ1 binding assay. (A) Analysis of binding ratio of THZ1 to DNA tetrahedron using UV absorption of THZ1 (220 nm). DNA tetrahedron (0.2 μM) was added different amounts of THZ1 (2-12 μM). The unbound THZ1 was removed through a Sephadex G-25 column for the detection samples. (B) Analysis of THZ1 binding to DNA tetrahedron (TH)-4ZHER1 using 1% agarose gel electrophoresis. The gel was run at 110 V for 1 h, and stained with ethidium bromide. Lanes 1-5, […] DNA tetrahedron (TH)-4ZHER1 incubated with 0-200 folds of THZ1.
DNA-THZ1 binding assay: The DNA binding property of THZ1 was evaluated following our reported method.^43 DNA tetrahedron was incubated with 10-60 fold of THZ1. After purification with G-25 column to remove unbound THZ1, the amount of THZ1 in the DNA tetrahedron was measured using UV absorption at 220 nm. […] Then we used a 1% agarose gel to analyze the binding property for high concentrations of THZ1. […] Thus, we used 50-fold of THZ1 to prepare DNA tetrahedron-4ZHER1-THZ1 nanostructure (I) for following assays.

[3] = tested on: MB231 breast cancer cells; test: Transwell migration assay; assay type: cell-based; settings: 500 nM THZ1; 24 h; p<0.001
Experimental: (§3) FIGS. 5A-5E. Migration assays for MB231 breast cancer cells. (A) without drug treatment; (B) treatment with THZ1; (C) treatment with nanostructure I; (D) Migration rate of MB231 (migrated cell numbers/control cell numbers×100%) (p<0.001); (E) Invasion rate of MB231 (invaded cell numbers/control cell numbers×100%) (p<0.001).
Migration assay: To verify whether nanostructure I blocks TNBC cell dissociation from aggregated cell clusters, a Transwell™ migration assay was performed. […] Since nanostructure I contains the same amount of THZ1, the enhanced inhibition of migration by nanostructure I is attributed to its ability to crosslink the cells. As a negative control, the migration of HER1 negative BT474 BC cells were not inhibited by I (FIG. 6A).

[4] = tested on: MB231 cancer cells; test: Invasion assay (matrigel treated Transwell); assay type: cell-based; settings: 500 nM THZ1; 24 h; p<0.001
Experimental: as §3
Invasion assay: To verify whether nanostructure I blocks cells from passing through vessel walls, an invasion assay was performed using a matrigel matrix treated Transwell™ to mimic the vessel wall. […] As a negative control, the invasion of HER1 negative BT474 BC cells were not affected by I (FIG. 6B).

[5] = tested on: double-strand linear DNA (20 bp, 40 bp and 60 bp); test: Linear double-strand DNA binding to THZ1 (1% agarose gel); settings: 40-160 mM THZ1
Experimental: FIG. 9. Verification of linear DNA binding to THZ1. Double-strand linear DNAs were mixed with different amounts of THZ1 and loaded on 1% agarose gel. The gels were run at 150 V for 20 min, and stained with EtBr.
Binding of DNA to THZ1 was evaluated (FIG. 9). Double-strand linear DNAs (20 bp, 40 bp and 60 bp) were prepared by mixing two complimentary DNAs (as listed below) in 50 mM Tris-HCl, pH 7.5, containing 50 mM NaCl. The reaction mixtures were heated at 90 °C for 5 min, then cool to room temperature. To keep the same base-pair number for each same, the 20 bp DNA was adjusted to 2 mM; 40 bp DNA was adjusted to 1 mM; 60 bp DNA was adjusted to 0.67 mM. Then 40-160 mM THZ1 were added to each sample and loaded on 1% agarose gel.

[6] = tested on: MB-231 cells; test: Growth/death of MB-231 cells after 48 h incubation; assay type: cell-based; settings: 500 nM THZ1
Experimental: as §1, §2

[7] = tested on: breast cancer; settings: breast cancer patients; cited from earlier work
[8] = tested on: TNBC; settings: employed as a single agent; cited from earlier work

For `CN(C)C/C=C/C(=O)Nc1ccc(C(=O)Nc2cccc(Nc3ncc(Cl)c(-c4c[nH]c5ccccc45)n3)c2)cc1` [THZ1], the cell aggregation [1] was “not aggregated”, the “concentration of THZ1 in DNA tetrahedron” value ([2]; 0.2 μM DNA tetrahedron, ratio THZ1/DNA tetrahedron 10 to 50, UV 220 nm after G-25 column) was “increased linearly” and the “passage of THZ1/DNA complex through G-25 column” value ([2]; ratio THZ1/DNA tetrahedron 60) was “part of THZ1/DNA complex did not pass through the G-25 column”. The inhibition of migration [3] was 57%, the inhibition of invasion [4] was 51% and the “binding to double-strand DNA” value [5] was “can bind to double-strand DNA”. The cell growth [6] was “partially growth inhibited”.
For “Patritumab deruxtecan: HER3 antibody drug conjugate”, the clinical activity [7] is listed as “early and clinically meaningful activity”.
In the case of “panitumumab: Anti-HER1 monoclonal antibody”, the “benefit to TNBC patients” value [8] is given as “neither antibody confers significant benefit to TNBC patients”.
